This passage reports Solubility, IC50 and inhibition results from publication PMC7582705, “Structure-Based Discovery of Novel Chemical Classes of Autotaxin Inhibitors” (International Journal of Molecular Sciences, 2020).

The nature of one series: Solubility (Table S1). The note with it: YES/NO.
Series [1] has as its target T1, ATX (Homo sapiens, UniProt Q13822). Put plainly: Amplex Red Lyso-phospholipase D assay, human ATX. The class given is biochemical. Details: purchased Sino Biological. The conditions noted are these: for inhibition at 30 µM: Table S2, at 30uM, read-out: %inhibition at 30uM. The method, then:
All compounds proposed were assessed for their ATX inhibitory activity in vitro using the Amplex Red assay. The Amplex Red Lyso-phospholipase D assay is a fluorometry-based assay providing a sensitive method for measuring Lyso-phospholipase D (ATX) activity in vitro. In this enzyme-coupled assay, ATX activity is monitored indirectly using 10-acetyl-3,7-dihydrophenoxazine (Amplex Red reagent), a sensitive fluorogenic probe for H2O2. ATX initially cleaves the Lysophosphatidylcholine (LPC) substrate to yield choline and Lysophosphatidic acid (LPA), while choline gets subsequently oxidized by choline oxidase to betaine and H2O2. Lastly, H2O2, in the presence of horseradish peroxidase (HRP), reacts with Amplex Red reagent in a 1:1 stoichiometry to generate the highly fluorescent product resorufin.
The inhibition assay was performed as previously described with some modifications in order to accommodate the newly-discovered lag phase in ATX kinetics. To this end, and in order to provide adequate time to the hydrolysis of LPC by ATX, we added a 30min incubation period between ATX, inhibitors and LPC. Briefly, 2 μL of different concentrations of inhibitors diluted in DMSO (Sigma-Aldrich, St. Louis, MO, USA) were incubated with 50 µL of ATX 8 nM (human or mouse ATX from Sino Biological), and 48 µL reaction buffer (50 mM Tris-Cl pH 8.0 from Thermo Fisher Scientific, Waltham, MA, USA and 5 mM CaCl2 from Honeywell-Fluka, Charlotte, NC, USA) in a black 96-well microplate for 15 min at 37 °C. Thence, another 50 µL of reaction buffer with 200 μM LPC substrate 16:0 (Avanti Polar Lipids Inc, Alabaster, AL, USA) ([…]) was added to the reaction mixture and incubated for 30 min at 37 °C in order for ATX to convert LPC to LPA and choline. Finally, 50 µL of working solution containing 200 μM Amplex Red (Invitrogen, Carlsbad, CA, USA), 4 U/mL HRP (Sigma-Aldrich, St. Louis, MO, USA), 0.4 U/mL choline oxidase (Sigma-Aldrich, St. Louis, MO, USA) in 50 mM Tris-HCl pH 8.0 and 5 mM CaCl2 was added to measure the produced choline. The reaction was monitored at 37 °C in a fluorescence plate reader using excitation at 530 nm and reading at 590 nm, every 5 min for 30 min. The velocity of the reaction and the remaining activity of ATX were calculated at the linear phase of the reaction and dose-response inhibition graphs were plotted with GraphPad Software (GraphPad Software, San Diego, CA, USA). […] In order to evaluate a possible effect of the compounds on the second (choline oxidase) and third (HRP) enzymes of the Amplex Red assay, we also performed the assay in the absence of ATX but in the presence of the compounds. Instead of ATX, we added choline chloride at a final concentration of 2 µM so as the second and third steps of the assay could proceed normally.

Series [2] has as its target T1, ATX. Put plainly: IC50 Eleanna (Table S2, method not described). In kind it is biochemical. The conditions noted are these: Table S2; read-out: IC50 Eleanna.
[3] abbreviates: recombinant human ATX 2 nM, LPC 16:0 substrate, Amplex Red, read-out: IC50 hATX.
The mark [4] stands for this setting: in vitro IC50 (Sino hATX 2nM), Table S2, Sino hATX 2nM.

Molecules are shown by their SMILES.

Regarding `CC(C)(C)c1ccc(-c2nnc(SCC(=O)c3ccccc3)n2-c2ccc3c(c2)OCO3)cc1` [HTS02043, 2-[[4-(1,3-benzodioxol-5-yl)-5-(4-tert-butylphenyl)-1,2,4-triazol-3-yl]sulfanyl]-1-phenylethanone], the Solubility result in “Solubility (Table S1)” was “YES”. Further, the IC50 at ATX [1] (setting [3]) was greater than 100 µM.

Take `NC(=NOC(=O)c1ccc(-c2cccs2)s1)c1cccc(C(F)(F)F)c1` [SEW02612, N'-{[5-(2-thienyl)-2-thienylcarbonyl]oxy}-3-(trifluoromethyl)benzenecarboximidamide]: the Solubility entry in “Solubility (Table S1)” is “YES”. Further, the 50% inhibitory concentration (IC50) on ATX [1] (setting [3]) was greater than 100 µM.

`Cc1nn(-c2ccccc2)c2nc(OCC(=O)c3ccc(Br)cc3)c(C#N)c(-c3cccnc3)c12` [HTS09079, 6-[2-(4-bromophenyl)-2-oxoethoxy]-3-methyl-1-phenyl-4-pyridin-3-,ylpyrazolo[4,5-e]pyridine-5-carbonitrile]: the Solubility result in the series “Solubility (Table S1)” was “YES”. Also, the IC50 at ATX [1] (setting [3]) was greater than 100 µM.

`O=S(=O)(Nc1cc(-c2cccs2)nn1-c1ccc(F)cc1)c1ccc(-c2cc(C(F)(F)F)on2)s1` [SP00998]: the Solubility entry in “Solubility (Table S1)” is listed as “YES”. The IC50 at ATX [1] (setting [3]) was greater than 100 µM.

With `COc1ccc(-n2c(-c3ccc(Cl)cc3)cc(-c3cccs3)c2-c2ccccc2)cc1` [RG00099, 5-(4-chlorophenyl)-1-(4-methoxyphenyl)-2-phenyl-3-(2-thienyl)-1H-pyrrole], the Solubility result in “Solubility (Table S1)” is on record as “YES”. At ATX [1] (setting [3]), the IC50 was greater than 100 µM.

In the case of `O=C1S/C(=C\c2ccc(OCc3ccc(B(O)O)cc3)cc2)C(=O)N1Cc1ccc(F)cc1` [HA155, [4-[[4-[(Z)-[3-[(4-fluorophenyl)methyl]-2,4-dioxo-1,3-thiazolidin-5-ylidene]methyl]phenoxy]methyl]phenyl]boronic acid, reference compound], the Solubility result in “Solubility (Table S1)” is reported as “YES”.

Turning to `CCOC(=O)c1c(-c2ccccc2)oc2ccc(O)c(CN3CCC(C)CC3)c12` [KM-39, 3-ethoxycarbonyl-4-[(4-methylpiperidin-1-ium-1-yl)methyl]-2-phenyl-1-benzofuran-5-olate], the values for the IC50 on ATX [2] and at ATX [1] (setting [4]) were 5 µM and greater than 30 µM, respectively.

With `Cc1ccccc1-n1nc2c(c1NC(=O)c1ccc3ccccc3c1)CS(=O)(=O)C2` [SC-47, N-[2-(2-methylphenyl)-5,5-dioxo-4,6-dihydrothieno[3,4-c]pyrazol-3-yl]naphthalene-2-carboxamide], the values for the IC50 on ATX [2] and at ATX [1] (setting [4]) were 3.4 µM and greater than 30 µM, respectively. For the same compound, the inhibition at 30 µM on ATX [1] amounted to 38.6%.

Regarding `COc1ccc(Cn2c(C(=O)O)c(CNC3CCCCC3)c3ccc(C)cc32)cc1` [KM-29, 3-[(cyclohexylamino)methyl]-1-[(4-methoxyphenyl)methyl]-6-methylindole-2-carboxylic acid], the results for the IC50 on ATX [2] and on ATX [1] (setting [4]) were 1.2 µM and greater than 30 µM, respectively. Further, the inhibition at 30 µM on ATX [1] is 3.21%.

For `COc1ccc2c(CNC3CCC(C)CC3)c(C(=O)O)n(Cc3ccccc3)c2c1` (stereo not drawn) [KM-47, 1-benzyl-6-methoxy-3-[[(4-methylcyclohexyl)amino]methyl]indole-2-carboxylic acid], the IC50 is greater than 5 µM at ATX [2] and greater than 30 µM against ATX [1] (setting [4]).

Consider `CCOC(=O)c1c(-c2ccccc2)oc2ccc(O)c(CN3CCCCC3C)c12` (stereo not drawn) [KM-48, 2,3-dihydroxybutanedioic acid;ethyl 5-hydroxy-4-[(2-methylpiperidin-1-yl)methyl]-2-phenyl-1-benzofuran-3-carboxylate], for which the IC50 at ATX [2] is greater than 5 µM; on ATX [1] (read-out: in vitro IC50 (Sino hATX 2nM), Table S2, Sino hATX 2nM), greater than 30 µM.

Turning to `Cc1ccc(-n2nc3c(c2NC(=O)c2cccc4ccccc24)C[S+]([O-])C3)cc1` (stereo not drawn) [SC-16, N-[2-(4-methylphenyl)-5-oxo-4,6-dihydrothieno[3,4-c]pyrazol-3-yl]naphthalene-1-carboxamide], the IC50 at ATX [2] was greater than 5 µM; against ATX [1] (setting [4]) it was greater than 30 µM. For the same compound, on ATX [1], the inhibition at 30 µM was 13.6%.

In the case of `Cc1ccccc1-n1nc2c(c1NC(=O)c1cccc3ccccc13)C[S+]([O-])C2` (stereo not drawn) [SC-3, N-[2-(2-methylphenyl)-5-oxo-4,6-dihydrothieno[3,4-c]pyrazol-3-yl]naphthalene-1-carboxamide], the IC50 at ATX [2] was 0.6 µM; at ATX [1] (setting [4]), greater than 30 µM. The inhibition at 30 µM at ATX [1] turned out to be 4.2%.

With `COc1ccc(C2SCCN2S(=O)(=O)c2ccc3c(c2)Cc2ccccc2-3)cc1` (stereo not drawn) [SC-8, 3-(9H-fluoren-2-ylsulfonyl)-2-(4-methoxyphenyl)-1,3-thiazolidine], the IC50 at ATX [2] was greater than 5 µM; against ATX [1] (setting [4]), greater than 30 µM.

For the compound `Cc1ccc(C)c(NC(=O)CSc2cn(CC(=O)N3CCCC3)c3ccccc23)c1` [KM-21, N-(2,5-dimethylphenyl)-2-[1-(2-oxo-2-pyrrolidin-1-ylethyl)indol-3-yl]sulfanylacetamide], the IC50 on ATX [2] is greater than 5 µM; at ATX [1] (setting [4]) it was greater than 30 µM.

As to `Cc1ccc(S(=O)(=O)N2CCN3C(=O)c4ccccc4C32c2ccccc2)cc1` (stereo not drawn) [SC-26, 1-(4-methylphenyl)sulfonyl-9b-phenyl-2,3-dihydroimidazo[2,1-a]isoindol-5-one], the IC50 at ATX [2] was greater than 5 µM; against ATX [1] (setting [4]), greater than 30 µM.

On to `O=C(Nc1c2c(nn1-c1ccc(F)cc1)C[S+]([O-])C2)c1cccc2ccccc12` (stereo not drawn) [SC-14, N-[2-(4-fluorophenyl)-5-oxo-4,6-dihydrothieno[3,4-c]pyrazol-3-yl]naphthalene-1-carboxamide], for which the results for the IC50 at ATX [2] and against ATX [1] (setting [4]) were greater than 5 µM and greater than 30 µM, respectively. In addition, at ATX [1], the inhibition at 30 µM was found to be 9.6%.

Turning to `CCc1ccc([C@H](NC(=O)CCN2C(=O)[C@@H](C)Oc3ccccc32)c2cccs2)cc1` [KM-36, N-[(S)-(4-ethylphenyl)-thiophen-2-ylmethyl]-3-[(2R)-2-methyl-3-oxo-1,4-benzoxazin-4-yl]propanamide], the figures for the IC50 on ATX [2] and against ATX [1] (setting [4]) were 5 µM and greater than 30 µM, respectively. The inhibition at 30 µM on ATX [1] is 9.71%.

Consider `Cn1c(-c2ccccc2)c(C(=O)Cn2cnc3ccsc3c2=O)c2ccccc21` [SC-10, 3-[2-(1-methyl-2-phenylindol-3-yl)-2-oxoethyl]thieno[3,2-d]pyrimidin-4-one], for which the IC50 on ATX [2] was greater than 5 µM; on ATX [1] (setting [4]), greater than 30 µM.

In the case of `O=C(Cc1cccc2ccccc12)Nc1c2c(nn1-c1ccccc1)C[S+]([O-])C2` (stereo not drawn) [SC-7, 2-naphthalen-1-yl-N-(5-oxo-2-phenyl-4,6-dihydrothieno[3,4-c]pyrazol-3-yl)acetamide], the figures for the IC50 at ATX [2] and at ATX [1] (setting [4]) were greater than 5 µM and greater than 30 µM, respectively.

Consider `O=C(Nc1c2c(nn1-c1ccc(F)cc1)C[S+]([O-])C2)c1ccc2ccccc2c1` (stereo not drawn) [SC-24, N-[2-(4-fluorophenyl)-5-oxo-4,6-dihydrothieno[3,4-c]pyrazol-3-yl]naphthalene-2-carboxamide], for which the IC50 at ATX [2] was 4 µM; at ATX [1] (setting [4]), greater than 30 µM. Moreover, the inhibition at 30 µM on ATX [1] came out at 18.2%.

For the compound `O=C1Cc2cc(C(=O)CSc3nc4ccccc4n3-c3ccccc3)ccc2N1` [SC-12, 5-[2-(1-phenylbenzimidazol-2-yl)sulfanylacetyl]-1,3-dihydroindol-2-one], the figures for the concentration for half-maximal inhibition (IC50) on ATX [2] and on ATX [1] (setting [4]) were 0.9 µM and greater than 30 µM, respectively.

In the case of `CC1Cc2nc(SCC(=O)NCc3ccc(F)cc3)n(Cc3ccccc3)c(=O)c2S1` (stereo not drawn) [KM-45, 2-[(3-benzyl-6-methyl-4-oxo-6,7-dihydrothieno[3,2-d]pyrimidin-2-yl)sulfanyl]-N-[(4-fluorophenyl)methyl]acetamide], the IC50 at ATX [2] is 1.3 µM; at ATX [1] (setting [4]), greater than 30 µM. Also, the inhibition at 30 µM on ATX [1] turned out to be 35.3%.

On to `CCc1nc2c(C)cc(N3CCN(CC(=O)N4CC(O)C4)CC3)cn2c1N(C)c1nc(-c2ccc(F)cc2)c(C#N)s1` [GLPG1690, 2-[[2-ethyl-6-[4-[2-(3-hydroxyazetidin-1-yl)-2-oxoethyl]piperazin-1-yl]-8-methylimidazo[1,2-a]pyridin-3-yl]-methylamino]-4-(4-fluorophenyl)-1,3-thiazole-5-carbonitrile, reference compound], for which the Solubility result in the series “Solubility (Table S1)” is on record as “YES”.
